Laboratory results published in ChEMBL document CHEMBL4482315, “In vivo imaging of sulfotransferases” (2013).
Active and inactive are the calls of the source. No cut-off for these calls is given here.

Tested on: Rattus norvegicus
Assay: In-vivo substrate activity at SULT1A in brain of Sprague-Dawley rat with renal hypertension a at 0.5 to 2 mCi dosed via bolus injection measured after 60 mins post dose by microPET imaging method
Format: functional, organism-based
Conditions: tested as the 18F-labelled form

O=[N+]([O-])c1cc(O)ccc1F
Activity: Active
